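A five-concentration, 48-hour dose response in 96-well plates underlies each endpoint, interpolated linearly between surrounding concentrations. TGI: concentration producing complete growth inhibition.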 Bounds are passed on as bounds.

Test systems include SR leukemia; T-47D breast; OVCAR-5 ovarian; SNB-19 CNS; SF-295 CNS; KM12 colon; MOLT-4 leukemia; MALME-3M melanoma; MCF7 breast; HCT-116 colon; NCI-H522 lung.
Common to all, as to assay: NCI anticancer screen, dose series, 48 h

`CCOC(=O)c1cnc2[nH]ccn2c1=O`: the TGI in the assay with SR leukemia, in the assay with T-47D breast, in the assay with OVCAR-5 ovarian, in the assay with SNB-19 CNS, with SF-295 CNS and in the assay with KM12 colon was above 10 µM each time. The TGI with MOLT-4 leukemia, in the assay with MALME-3M melanoma, in the assay with MCF7 breast and with HCT-116 colon was above 10 µM each time.

Turning to `CN(C)c1ccc(/C(Br)=C2\OC(=O)c3ccccc32)cc1`, the TGI in the assay with SR leukemia, with T-47D breast, in the assay on OVCAR-5 ovarian, with SNB-19 CNS, in the assay on SF-295 CNS and in the assay on KM12 colon was above 100 µM throughout. For the same molecule, the TGI with MOLT-4 leukemia, in the assay with MALME-3M melanoma, in the assay with MCF7 breast and in the assay with HCT-116 colon was above 100 µM each time.

With `COC(c1ccc(C(C)(C)C)cc1)(c1ccc(C(C)(C)C)cc1)c1cc(C(O)(c2cc(C(OC)(c3ccc(C(C)(C)C)cc3)c3ccc(C(C)(C)C)cc3)c(C)cc2C)c2cc(C(OC)(c3ccc(C(C)(C)C)cc3)c3ccc(C(C)(C)C)cc3)c(C)cc2C)c(C)cc1C`, the TGI in the assay with SR leukemia, with T-47D breast, in the assay with OVCAR-5 ovarian, with SF-295 CNS, in the assay with MOLT-4 leukemia and in the assay on MALME-3M melanoma was above 100 µM throughout. In addition, the TGI with MCF7 breast and with HCT-116 colon was above 100 µM each time.

Turning to `O=C(/C=C/c1cccs1)c1ccc(Cl)cc1`, the TGI in the assay with SR leukemia is 71.1 µM; in the assay on T-47D breast it was above 100 µM; in the assay on OVCAR-5 ovarian it was above 100 µM; in the assay with SNB-19 CNS, above 100 µM; with SF-295 CNS, above 100 µM; in the assay on KM12 colon it was above 100 µM. The TGI in the assay with MOLT-4 leukemia is 48.9 µM; in the assay with MALME-3M melanoma it was above 100 µM; with MCF7 breast, above 100 µM; with HCT-116 colon it was above 100 µM.

`COc1cccc(C2c3cc4c(cc3OC(N3CCCC3)C2C)OCO4)c1OC` (configuration not stated): the TGI stood at 15.2 µM in the assay on SR leukemia; 39.3 µM in the assay with T-47D breast; 25.5 µM in the assay with NCI-H522 lung; 17.9 µM in the assay with OVCAR-5 ovarian; 5.33 µM in the assay with SNB-19 CNS; 12.4 µM in the assay with SF-295 CNS. The TGI in the assay on KM12 colon is 15.1 µM; with MOLT-4 leukemia, 10.7 µM; in the assay on MCF7 breast it was above 100 µM; with HCT-116 colon, 5.99 µM.

Consider `Cc1nc2ccc([N+](=O)[O-])cc2c(=O)n1C(=S)Nc1cccc(Cl)c1`, for which the TGI in the assay on SR leukemia was above 100 µM; in the assay on T-47D breast, 69.6 µM; in the assay on OVCAR-5 ovarian, above 100 µM; in the assay with SNB-19 CNS it was above 100 µM; with SF-295 CNS it was 53.6 µM; in the assay with KM12 colon, 32.2 µM. In addition, the TGI with MOLT-4 leukemia was above 100 µM; with MALME-3M melanoma it was 49.1 µM; in the assay on MCF7 breast, 49.5 µM; in the assay with HCT-116 colon, 36.9 µM.

`COc1cccc(-c2nc(-c3cnccn3)n(Cc3ccccc3)n2)c1`: the TGI in the assay with SR leukemia, with T-47D breast, in the assay with NCI-H522 lung, with OVCAR-5 ovarian, in the assay with SNB-19 CNS and in the assay on SF-295 CNS was above 100 µM throughout. For the same molecule, the TGI in the assay on KM12 colon, in the assay on MOLT-4 leukemia, with MCF7 breast and with HCT-116 colon was above 100 µM each time.

Take `CO/N=C1/c2sccc2[C@H](NC(=O)CNC(=O)OC(C)(C)C)[C@@H]1O`: the TGI in the assay with SR leukemia, with T-47D breast, with OVCAR-5 ovarian, in the assay on SNB-19 CNS, in the assay with SF-295 CNS and in the assay on MOLT-4 leukemia was above 100 µM each time. For the same molecule, the TGI in the assay on MALME-3M melanoma, in the assay with MCF7 breast and with HCT-116 colon was above 100 µM in each case.

As for `O=c1nc2c(c(-c3cccc(Cl)c3)[nH]1)COC/C2=C\c1cccc(Cl)c1`, the TGI with SR leukemia, with T-47D breast, in the assay on NCI-H522 lung, in the assay on OVCAR-5 ovarian, in the assay on SNB-19 CNS and in the assay on SF-295 CNS was above 100 µM in each case. Besides, the TGI with KM12 colon, in the assay with MOLT-4 leukemia, with MCF7 breast and with HCT-116 colon was above 100 µM in each case.

As to `CN(O)C(=O)Cc1ccc(OCc2cccc(Cl)c2)cc1`, the TGI in the assay with SR leukemia, in the assay with T-47D breast, in the assay on NCI-H522 lung, in the assay with OVCAR-5 ovarian, with SNB-19 CNS and with SF-295 CNS was above 100 µM in each case. The TGI in the assay on KM12 colon, with MOLT-4 leukemia, with MCF7 breast and with HCT-116 colon was above 100 µM in each case.

With `O=c1c2cc(I)ccc2[nH]c(=S)n1Cc1ccccc1`, the TGI in the assay on SR leukemia is above 100 µM; in the assay on T-47D breast, above 100 µM; in the assay on NCI-H522 lung, 42.9 µM; with OVCAR-5 ovarian, above 100 µM; with SNB-19 CNS, 98.9 µM; with SF-295 CNS it was above 100 µM. The TGI in the assay on KM12 colon, in the assay with MOLT-4 leukemia, in the assay with MCF7 breast and in the assay with HCT-116 colon was above 100 µM throughout.
